Results: the supplement of paper PMC10627819

What was measured:
S. pneumoniae D39V [1] = test: fitness (endpoint OD595 vs no drug) (fraction); higher = more growth
In short: (§1)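 Bacterial fitness was scored as optical density at the stationary-phase transition relative to the robust mean of no-drug control wells. Scores are capped at 1. The growth data were OD595 readings every 30 min for 14 h at 37 °C, background-subtracted against the first reading, from 384-well plates inoculated at OD595 0.01 in TSB, LB Lennox or CY.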

B. subtilis 168 [2] = test: as above
In short: as §1

S. aureus DSM 20231 = test: Bliss interaction score (quartile over a dose matrix) (fitness difference); higher = more antagonism (negative = synergy)
In short: (§2)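 Fitness was OD595 at entry into stationary phase divided by the plate's robust no-drug mean and capped at 1; single-drug fitness was inferred from combination data. The Bliss score is observed minus expected (product) fitness, summarised by quartiles over technical, biological and donor/recipient replicates.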

S. aureus Newman = test: as above
In short: as §2

S. pneumoniae D39V [3] = test: as above
In short: as §2

B. subtilis 168 [4] = test: as above
In short: as §2
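For Bliss interaction score (quartile over a dose matrix) in this document: first quartile when negative (synergy) and third quartile when positive (antagonism).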

C[C@H]1c2cccc(O)c2C(=O)C2=C(O)[C@]3(O)C(=O)C(C(N)=O)=C(O)[C@@H](N(C)C)[C@@H]3[C@@H](O)[C@@H]21 [Doxycycline] + CC(C1CCC(C(O1)OC2C(CC(C(C2O)OC3C(C(C(CO3)(C)O)NC)O)N)N)N)NC [Gentamicin]
fitness, S. pneumoniae D39V [1], one replicate, main component drawn
Details	partner 2 µg/mL	partner 4 µg/mL	partner 8 µg/mL
first compound 0.003875 µg/mL	≥ 1	≥ 1	≥ 1
first compound 0.00775 µg/mL	≥ 1	0.995	0.967

main component drawn
Details	fitness
B. subtilis 168 [2], first compound 0.02 µg/mL, partner 0.0625 µg/mL	0.896
B. subtilis 168 [2], first compound 0.04 µg/mL, partner 0.0625 µg/mL	0.747
B. subtilis 168 [2], first compound 0.08 µg/mL, partner 0.25 µg/mL	0.0845
S. pneumoniae D39V [1], first compound 0.0155 µg/mL, partner 2 µg/mL	0.885
S. pneumoniae D39V [1], first compound 0.0155 µg/mL, partner 4 µg/mL	0.857
S. pneumoniae D39V [1], first compound 0.0155 µg/mL, partner 8 µg/mL	0.824

main component drawn
Details	Bliss interaction score
B. subtilis 168 [4]	0.213
S. aureus DSM 20231	0.067
S. aureus Newman	0.0873
S. pneumoniae D39V [3]	-0.208

C[C@H]1c2cccc(O)c2C(=O)C2=C(O)[C@]3(O)C(=O)C(C(N)=O)=C(O)[C@@H](N(C)C)[C@@H]3[C@@H](O)[C@@H]21 [Doxycycline] + CCC(C)C1C(=O)NC(=C)C(=O)NC(C(=O)NC(CSCC(C(=O)N1)NC(=O)/C(=C/C)/NC(=O)C(C(C)CC)N)C(=O)NC2C(SCC(NC(=O)CNC(=O)C3CCCN3C2=O)C(=O)NC(CCCCN)C(=O)NC4C(SCC(NC(=O)CNC(=O)C(NC(=O)C(NC(=O)C(NC(=O)CNC4=O)C)CC(C)C)CCSC)C(=O)NC(CC(=O)N)C(=O)NC(CCSC)C(=O)NC(CCCCN)C(=O)NC5C(SCC6C(=O)NC(C(=O)NC(CSC(C(C(=O)N6)NC(=O)C(NC5=O)C)C)C(=O)NC(CO)C(=O)NC(C(C)CC)C(=O)NC(CC7=CN=CN7)C(=O)NC(C(C)C)C(=O)NC(=C)C(=O)NC(CCCCN)C(=O)O)CC8=CN=CN8)C)C)C)CC(C)C [Nisin]
fitness, one replicate, main component drawn
Details	partner 1.25 µg/mL	partner 1.6 µg/mL	partner 2.5 µg/mL	partner 3.2 µg/mL	partner 4 µg/mL	partner 5 µg/mL	partner 6.4 µg/mL	partner 8 µg/mL	partner 16 µg/mL
B. subtilis 168 [2], first compound 0.02 µg/mL	0.915	0.287	0.481	0.0387	0.0411	0.0601	0.0419	0.0354	0.0177
B. subtilis 168 [2], first compound 0.04 µg/mL	0.935	0.358	0.464	0.0224	0.137	0.0251	0.035	0.0271	0.024
B. subtilis 168 [2], first compound 0.08 µg/mL	0.594	0.0173	0.165	0.0251	0.0169	0.0318	0.0245	0.0228	0.0199
S. pneumoniae D39V [1], first compound 0.003875 µg/mL	–	0.0092	–	0	–	–	0.0176	–	–
S. pneumoniae D39V [1], first compound 0.00775 µg/mL	–	0.0172	–	0	–	–	0.0097	–	–
S. pneumoniae D39V [1], first compound 0.031 µg/mL	–	0.222	–	0.0345	–	–	0	–	–
S. pneumoniae D39V [1], first compound 0.062 µg/mL	–	0.0897	–	0.0057	–	–	0.0088	–	–

main component drawn
Details	fitness
B. subtilis 168 [2], first compound 0.02 µg/mL, partner 0.5 µg/mL	0.836
B. subtilis 168 [2], first compound 0.02 µg/mL, partner 1 µg/mL	0.809
B. subtilis 168 [2], first compound 0.02 µg/mL, partner 2 µg/mL	0.476
B. subtilis 168 [2], first compound 0.04 µg/mL, partner 0.5 µg/mL	0.755
B. subtilis 168 [2], first compound 0.04 µg/mL, partner 1 µg/mL	0.741
B. subtilis 168 [2], first compound 0.04 µg/mL, partner 2 µg/mL	0.403
B. subtilis 168 [2], first compound 0.08 µg/mL, partner 0.5 µg/mL	0.61
B. subtilis 168 [2], first compound 0.08 µg/mL, partner 1 µg/mL	0.541
B. subtilis 168 [2], first compound 0.08 µg/mL, partner 2 µg/mL	0.0887
S. pneumoniae D39V [1], first compound 0.0155 µg/mL, partner 0.4275 µg/mL	0.935
S. pneumoniae D39V [1], first compound 0.0155 µg/mL, partner 0.855 µg/mL	0.803
S. pneumoniae D39V [1], first compound 0.0155 µg/mL, partner 1.6 µg/mL	0.192
S. pneumoniae D39V [1], first compound 0.0155 µg/mL, partner 1.71 µg/mL	0.0645
S. pneumoniae D39V [1], first compound 0.0155 µg/mL, partner 3.2 µg/mL	0.017
S. pneumoniae D39V [1], first compound 0.0155 µg/mL, partner 6.4 µg/mL	0.0088
S. pneumoniae D39V [1], first compound 0.031 µg/mL, partner 0.4275 µg/mL	0.89
S. pneumoniae D39V [1], first compound 0.031 µg/mL, partner 0.855 µg/mL	0.596
S. pneumoniae D39V [1], first compound 0.031 µg/mL, partner 1.71 µg/mL	0.0413
S. pneumoniae D39V [1], first compound 0.062 µg/mL, partner 0.4275 µg/mL	0.846
S. pneumoniae D39V [1], first compound 0.062 µg/mL, partner 1.71 µg/mL	0.0711

main component drawn
Details	Bliss interaction score
B. subtilis 168 [4]	0.0503
S. aureus DSM 20231	-0.0392
S. aureus Newman	0.0561
S. pneumoniae D39V [3]	-0.161

C[C@H]1c2cccc(O)c2C(=O)C2=C(O)[C@]3(O)C(=O)C(C(N)=O)=C(O)[C@@H](N(C)C)[C@@H]3[C@@H](O)[C@@H]21 [Doxycycline] + CCC[C@@H]1C[C@@H](C(=O)N[C@@H]([C@H]2O[C@H](SC)[C@H](O)[C@@H](O)[C@H]2O)[C@@H](C)O)N(C)C1 [Lincomycin]
fitness, one replicate
Details	first compound 0.003875 µg/mL	first compound 0.00775 µg/mL	first compound 0.02 µg/mL	first compound 0.031 µg/mL	first compound 0.04 µg/mL	first compound 0.062 µg/mL	first compound 0.08 µg/mL
B. subtilis 168 [2], partner 0.8 µg/mL	–	–	0.881	–	0.693	–	0.209
B. subtilis 168 [2], partner 1.6 µg/mL	–	–	0.792	–	0.549	–	0.153
S. pneumoniae D39V [1], partner 0.2 µg/mL	0.822	0.77	–	0.636	–	0.374	–
S. pneumoniae D39V [1], partner 0.4 µg/mL	0.748	0.711	–	0.398	–	0.146	–
S. pneumoniae D39V [1], partner 0.8 µg/mL	0.231	0.303	–	0.163	–	0.0672	–

fitness
Details	partner 0.1 µg/mL	partner 0.2 µg/mL	partner 0.215 µg/mL	partner 0.4 µg/mL	partner 0.43 µg/mL	partner 0.8 µg/mL	partner 0.86 µg/mL
B. subtilis 168 [2], first compound 0.02 µg/mL	0.918	0.888	–	0.885	–	–	–
B. subtilis 168 [2], first compound 0.04 µg/mL	0.764	0.72	–	0.717	–	–	–
S. pneumoniae D39V [1], first compound 0.0155 µg/mL	–	0.76	0.726	0.657	0.62	0.213	0.344
S. pneumoniae D39V [1], first compound 0.031 µg/mL	–	–	0.716	–	0.625	–	0.298
S. pneumoniae D39V [1], first compound 0.062 µg/mL	–	–	0.674	–	0.481	–	0.221

Details	Bliss interaction score
B. subtilis 168 [4]	0.0648
S. aureus DSM 20231	-0.228
S. aureus Newman	-0.0975
S. pneumoniae D39V [3]	-0.13

C[C@H]1c2cccc(O)c2C(=O)C2=C(O)[C@]3(O)C(=O)C(C(N)=O)=C(O)[C@@H](N(C)C)[C@@H]3[C@@H](O)[C@@H]21 [Doxycycline] + CCN(CC)CCOC(=O)c1ccc(N)cc1 [Procaine]
fitness, S. pneumoniae D39V [1], one replicate
Details	partner 85.5 µg/mL	partner 171 µg/mL	partner 342 µg/mL
first compound 0.003875 µg/mL	≥ 1	≥ 1	≥ 1
first compound 0.00775 µg/mL	≥ 1	0.971	0.994

fitness
Details	partner 85.5 µg/mL	partner 171 µg/mL	partner 342 µg/mL
B. subtilis 168 [2], first compound 0.02 µg/mL	0.892	0.855	0.844
B. subtilis 168 [2], first compound 0.04 µg/mL	0.742	0.707	0.7
B. subtilis 168 [2], first compound 0.08 µg/mL	–	0.363	–
S. pneumoniae D39V [1], first compound 0.0155 µg/mL	0.972	0.95	0.955
S. pneumoniae D39V [1], first compound 0.031 µg/mL	0.862	0.835	0.849
S. pneumoniae D39V [1], first compound 0.062 µg/mL	0.77	0.753	0.744

Details	Bliss interaction score
B. subtilis 168 [4]	-0.0366
S. aureus DSM 20231	-0.0922
S. aureus Newman	0.0409
S. pneumoniae D39V [3]	0.0386
